Test results as given in PMC8965344 (Frontiers in Microbiology, 2022).
Read-outs that look alike come from different tables or passages of the source.

What was measured:
human TLR2 = biological target: T1, human TLR2 (Homo sapiens, UniProt O60603+Q15399); test: cell-based
T1 construct: expressed in transfected cells; host or cells: HEK293-NF-κB-Luc cells (clone LP58), stably transfected

[1] = in vivo; cited from earlier work
[2] = system: B. anthracis (Ames strain); assay type: in vivo, Bacillus anthracis; conditions: 13 days
Streptococcus pneumoniae = conditions: in vivo; cited from earlier work
[3] = system: B. anthracis (Ames strain); assay type: in vivo, Bacillus anthracis; conditions: for survival rate: 17 days
B. anthracis = system: B. anthracis; parameters: species or system Bacillus anthracis; conditions: in vivo
[4] = system: B. anthracis (Ames strain); parameters: species or system Bacillus anthracis; conditions: in vivo
S. aureus = conditions: in vivo; cited from earlier work
PA = conditions: cited from earlier work

T1 sequence (O60603 21-784): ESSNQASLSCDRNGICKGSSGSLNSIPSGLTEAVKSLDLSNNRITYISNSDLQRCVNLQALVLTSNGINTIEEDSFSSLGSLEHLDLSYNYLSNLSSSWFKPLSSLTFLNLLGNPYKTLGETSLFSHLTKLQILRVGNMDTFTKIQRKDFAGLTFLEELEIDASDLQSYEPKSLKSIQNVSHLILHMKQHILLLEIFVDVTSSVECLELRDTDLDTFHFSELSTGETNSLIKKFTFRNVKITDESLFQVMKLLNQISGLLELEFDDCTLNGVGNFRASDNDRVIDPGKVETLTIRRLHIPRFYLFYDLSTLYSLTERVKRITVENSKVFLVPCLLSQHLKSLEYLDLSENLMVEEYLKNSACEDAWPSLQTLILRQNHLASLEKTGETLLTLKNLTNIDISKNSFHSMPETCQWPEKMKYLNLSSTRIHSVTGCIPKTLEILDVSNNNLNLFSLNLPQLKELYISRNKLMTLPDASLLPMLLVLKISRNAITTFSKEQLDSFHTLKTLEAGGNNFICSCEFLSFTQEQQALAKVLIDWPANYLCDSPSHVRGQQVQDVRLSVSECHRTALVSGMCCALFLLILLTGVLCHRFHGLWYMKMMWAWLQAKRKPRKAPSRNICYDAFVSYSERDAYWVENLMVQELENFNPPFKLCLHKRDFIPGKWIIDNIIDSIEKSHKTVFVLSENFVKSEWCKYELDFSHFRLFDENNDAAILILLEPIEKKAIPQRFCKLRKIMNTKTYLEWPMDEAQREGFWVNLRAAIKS
T1 sequence (Q15399 25-786): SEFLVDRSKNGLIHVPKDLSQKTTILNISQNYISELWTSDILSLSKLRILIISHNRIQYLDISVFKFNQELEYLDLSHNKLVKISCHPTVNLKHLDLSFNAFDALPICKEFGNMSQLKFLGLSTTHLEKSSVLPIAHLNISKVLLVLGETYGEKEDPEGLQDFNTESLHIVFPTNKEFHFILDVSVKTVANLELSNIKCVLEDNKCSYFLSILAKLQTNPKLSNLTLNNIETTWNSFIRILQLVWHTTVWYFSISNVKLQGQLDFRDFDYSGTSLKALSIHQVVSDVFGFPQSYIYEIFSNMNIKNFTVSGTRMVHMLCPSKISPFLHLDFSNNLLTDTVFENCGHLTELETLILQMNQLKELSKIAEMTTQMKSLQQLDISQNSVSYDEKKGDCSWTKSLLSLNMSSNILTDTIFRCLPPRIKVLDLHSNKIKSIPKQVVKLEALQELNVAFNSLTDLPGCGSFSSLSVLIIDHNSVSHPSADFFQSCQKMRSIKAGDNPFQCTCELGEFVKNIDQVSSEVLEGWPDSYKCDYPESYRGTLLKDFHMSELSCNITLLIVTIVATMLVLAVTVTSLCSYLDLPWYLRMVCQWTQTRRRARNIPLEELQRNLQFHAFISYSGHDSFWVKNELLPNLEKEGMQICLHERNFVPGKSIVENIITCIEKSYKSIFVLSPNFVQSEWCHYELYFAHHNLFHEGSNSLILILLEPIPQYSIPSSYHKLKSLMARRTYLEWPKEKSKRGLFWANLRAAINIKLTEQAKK

Molecule: CCCCCCCCCCCCCCCC(=O)N[C@@H](CSC[C@@H](COC(=O)CCCCCCCCCCC)OC(=O)CCCCCCCCCCC)C(=O)N[C@@H](C)C(=O)N[C@H](CCC(=O)O)C(N)=O [DA-98-WW07, (4R,7S,10R,14R)-4-carbamoyl-14-(dodecanoyloxy)-7-methyl-6,9,17-trioxo-10-palmitamido-16-oxa-12-thia-5,8-diazaoctacosanoic acid]
- EC50 (human TLR2): 1040 ± 1160 nM
- efficacy (% Eff), NF-κB-Luciferase (human TLR2): 101.36%

Molecule: CCc1nc2c(N)nc3ccccc3c2n1CCCCNS(C)(=O)=O [PF4878691]
- adverse effects in patients [1]: flu-like symptoms, lymphopenia and hypotension

Molecule: O=C(O)c1cn(C2CC2)c2cc(N3CCNCC3)c(F)cc2c1=O [ciprofloxacin]
- survival rate [2]: 50%

Molecule: MALP-2
- pulmonary bacterial burden in mice (Streptococcus pneumoniae): reduced pulmonary bacterial burden in mice

Molecule: ODN1826
- survival rate [3]: 0%

Molecule: Pam2CSK4
- survival rate [3]: 20%
- induction of IFN-γ, TNF-α and IL-6 production (human PBMCs): able to induce aforementioned cytokine productions with varying potency
- induction of NF-kB activity (human TLR2): dose dependent induction of NF-kB activity

Molecule: Pam3CSK4
- survival rate [3]: 60%
- protection of mice from lethal challenge of B. anthracis ([3]; in vivo): the best at protecting mice from lethal challenge of B. anthracis
- survival rate after re-challenge (B. anthracis): 25%
- induction of IFN-γ, TNF-α and IL-6 production (human PBMCs): able to induce aforementioned cytokine productions with varying potency
- induction of NF-kB activity (human TLR2): dose dependent induction of NF-kB activity
- survival rate [4]: 40%

Molecule: Pam3Cys
- protection from S. aureus endophthalmitis (S. aureus): protected mice from S. aureus endophthalmitis, preserved retinal structural integrity, and maintained visual function

Molecule: Poly (I:C)
- survival rate [3]: 20%

Molecule: lipopolysaccharide [LPS]
- induction of IFN-γ, TNF-α and IL-6 production (human PBMCs): able to induce aforementioned cytokine productions with varying potency
- induction of NF-kB activity (human TLR2): dose dependent induction of NF-kB activity

B1: obiltoxaximab (antibody, chains of the INN, looked up, V domains shown)
VH: QVQLQQSGPELKKPGASVKVSCKDSGYAFSSSWMNWVRQAPGQGLEWIGRIYPGDGDTNYNGKFQGRVTITADKSSSTAYMELSSLRSEDTAVYFCARSGLLRYAMDYWGQGTLVTVSS
VL: DIQMTQSPSSLSASVGDRVTITCRASQDIRNYLNWYQQKPGKAVKLLIYYTSRLLPGVPSRFSGSGSGTDYSLTISSQEQEDIGTYFCQQGNTLPWTFGQGTKVEIR
- binding to PA and block of binding to anthrax toxin receptors (PA): bind to PA and block its binding to anthrax toxin receptors
